Results taken from patent US20260273072A1, “NOVEL PLK1 DEGRADATION INDUCING COMPOUND” (UPPTHERA, INC., priority 2023, published 2026).

Columns and labels:
Assay type in all cases: cell-based
[1] = system: NCI-H526 cell line; assay: Cell viability assay for NCI-H526 cell line (EZ-Cytox); conditions: Homo sapiens, NCI-H526, 120 h; H526 cells, 5 days, 3000 nM to 0.46 nM
Outline: (§1)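 Human SCLC lines cultured with compound for 5 days in a CO2 incubator; viability read by EZ-Cytox absorbance at 450 nm after 3 min shaking. IC50 reported in activity bins (A: <30 nM up to E: <400 nM).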

[2] = system: NCI-H69 cell line; assay: Cell viability assay for NCI-H69 cell line (EZ-Cytox); conditions: Homo sapiens, NCI-H69, 120 h; H69 cells, 5 days, 3000 nM to 0.46 nM
Outline: as §1

[3] = system: MRC-5 cell line; assay: Cell viability assay for MRC-5 cell line (EZ-Cytox); conditions: Homo sapiens, MRC5, 120 h; MRC-5 normal cell line, 5 days, 10000 nM to 1.52 nM; read-out: Activity: IC50 value, cell viability, MRC-5 cell line (Exemplary Compounds)
Protocol: 4. Cell Viability Assay for MRC-5 Cell Line
(1) Culture of MRC-5 Cell Line
The MRC-5 cell line was purchased from KCLB. Passage of cultured cells was maintained within P15.
(2) Treatment of Compounds of the Present Invention
Then, it was cultured in 37° C. CO2 incubator (Thermo Fisher Scientific) for 5 days.
(3) Cytotoxicity Experiment
CO2 incubator for 4 hours.

[4] = biological target: T1, PLK1 (Homo sapiens, UniProt P53350); assay: Luciferase assay for PLK1 in HeLa LgBit (Plk1-HiBit KI) cell line; conditions: 300 nM compound, luminescence after 9 hours
T1 construct: endogenous in cells; host or cells: HeLa LgBit (Plk1-HiBit KI): HeLa stably expressing LgBit, with a CRISPR/Cas9 knock-in of HiBit at the endogenous PLK1 locus
T1 sequence (P53350 whole entry): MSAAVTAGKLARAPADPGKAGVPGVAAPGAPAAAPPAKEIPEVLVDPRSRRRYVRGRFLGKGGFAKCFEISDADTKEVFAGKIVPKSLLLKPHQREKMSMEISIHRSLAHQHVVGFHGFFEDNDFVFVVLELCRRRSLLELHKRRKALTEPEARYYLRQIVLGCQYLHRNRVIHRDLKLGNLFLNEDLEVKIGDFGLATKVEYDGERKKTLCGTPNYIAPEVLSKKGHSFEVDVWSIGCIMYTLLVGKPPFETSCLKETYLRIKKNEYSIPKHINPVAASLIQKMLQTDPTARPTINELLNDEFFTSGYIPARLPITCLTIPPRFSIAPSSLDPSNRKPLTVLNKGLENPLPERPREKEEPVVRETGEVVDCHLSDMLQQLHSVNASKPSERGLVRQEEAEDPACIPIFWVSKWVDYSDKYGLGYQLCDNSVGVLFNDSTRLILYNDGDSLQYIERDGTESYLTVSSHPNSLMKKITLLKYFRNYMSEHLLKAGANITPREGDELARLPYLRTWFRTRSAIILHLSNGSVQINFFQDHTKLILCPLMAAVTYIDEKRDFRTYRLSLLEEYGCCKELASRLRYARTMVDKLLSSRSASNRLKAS
Outline: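 HeLa LgBit cells with endogenous PLK1 C-terminally HiBit-tagged by CRISPR knock-in; released from 24 h 2 mM thymidine block, seeded, grown 18 h. Compounds at 300 nM with Endurazine substrate; luminescence (470-480 nm) tracked in real time, expressed as ratio to DMSO.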

| Structure (SMILES) | IC50 [1] [µM] | IC50 [2] [µM] | IC50 [3] [µM] | Activity: ratio of the luminescence value of compound treatment group to DMSO treatment group [4] |
| --- | --- | --- | --- | --- |
| COc1cc(C(=O)NC2CCC(N(C)CC3CCN(c4ccc(NC5CCC(=O)NC5=O)cc4F)CC3)CC2)ccc1Nc1ncc2c(n1)N(C(C)C)CC(F)(F)C(=O)N2C (stereo not drawn) [Compound 26, 4-((7,7-difluoro-9-isopropyl-5-methyl-6-oxo-6,7,8,9-tetrahydro-5H-pyrimido[4,5-b][1,4]diazepin-2-yl)amino)-N-((1r,4r)-4-(((1-(4-((2,6-dioxopiperidin-3-yl)amino)-2-fluorophenyl)piperidin-4-yl)methyl)(methyl)amino)cyclohexyl)-3-methoxybenzamide] | < 0.03 | < 0.03 | > 10 | ++ (++: <0.5) |
| CCN1CC(F)(F)C(=O)N(C)c2cnc(Nc3ccc(C(=O)NC4CCC(N(C)CC5CCN(c6ccc(NC7CCC(=O)NC7=O)cc6F)CC5)CC4)cc3OC)nc21 (stereo not drawn) [Compound 27, N((1r,4r)-4-(((1-(4-((2,6-dioxopiperidin-3-yl)amino)-2-fluorophenyl)piperidin-4-yl)methyl)(methyl)amino)cyclohexyl)-4-((9-ethyl-7,7-difluoro-5-methyl-6-oxo-6,7,8,9-tetrahydro-5H-pyrimido[4,5-b][1,4]diazepin-2-yl)amino)-3-methoxybenzamide] | < 0.03 | < 0.03 | > 10 | +++ (+++: <0.3) |
| CCN1CC(F)(F)C(=O)N(C)c2cnc(Nc3ccc(C(=O)NN4CCC(CCN5CCN(c6ccc(NC7CCC(=O)NC7=O)cc6F)CC5)CC4)cc3OC)nc21 (stereo not drawn) [Compound 28, N(4-(2-(4-(4-((2,6-dioxopiperidin-3-yl)amino)-2-fluorophenyl)piperazin-1-yl)ethyl)piperidin-1-yl)-4-((9-ethyl-7,7-difluoro-5-methyl-6-oxo-6,7,8,9-tetrahydro-5H-pyrimido[4,5-b][1,4]diazepin-2-yl)amino)-3-methoxybenzamide] | < 0.03 | < 0.03 | > 10 | +++ (+++: <0.3) |
| COc1cc(C(=O)NN2CCC(CCN3CCN(c4ccc(NC5CCC(=O)NC5=O)cc4F)CC3)CC2)ccc1Nc1ncc2c(n1)N(C(C)C)CC(F)(F)C(=O)N2C (stereo not drawn) [Compound 29, 4-((7,7-difluoro-9-isopropyl-5-methyl-6-oxo-6,7,8,9-tetrahydro-5H-pyrimido[4,5-b][1,4]diazepin-2-yl)amino)-N-(4-(2-(4-(4-((2,6-dioxopiperidin-3-yl)amino)-2-fluorophenyl)piperazin-1-yl)ethyl)piperidin-1-yl)-3-methoxybenzamide] | < 0.03 | < 0.03 | > 10 | +++ (+++: <0.3) |
| COc1cc(C(=O)NC2CCN(CCC3CCN(c4ccc(NC5CCC(=O)NC5=O)cc4F)CC3)CC2)ccc1Nc1ncc2c(n1)N(C1CCCC1)CC(F)(F)C(=O)N2C (stereo not drawn) [Compound 30, 4-((9-cyclopentyl-7,7-difluoro-5-methyl-6-oxo-6,7,8,9-tetrahydro-5H-pyrimido[4,5-b][1,4]diazepin-2-yl)amino)-N-(1-(2-(1-(4-((2,6-dioxopiperidin-3-yl)amino)-2-fluorophenyl)piperidin-4-yl)ethyl)piperidin-4-yl)-3-methoxybenzamide] | < 0.03 | < 0.03 | > 10 | +++ (+++: <0.3) |
| COc1cc(C(=O)NC2CCN(CCN3CCN(c4ccc(NC5CCC(=O)NC5=O)c(F)c4)CC3)CC2)ccc1Nc1ncc2c(n1)N(C1CCCC1)CC(F)(F)C(=O)N2C (stereo not drawn) [Compound 32, 4-((9-cyclopentyl-7,7-difluoro-5-methyl-6-oxo-6,7,8,9-tetrahydro-5H-pyrimido[4,5-b][1,4]diazepin-2-yl)amino)-N-(1-(2-(4-(4-((2,6-dioxopiperidin-3-yl)amino)-3-fluorophenyl)piperazin-1-yl)ethyl)piperidin-4-yl)-3-methoxybenzamide] | < 0.03 | < 0.03 | > 10 | ++ (++: <0.5) |
